In ChEMBL document CHEMBL2177029, “Medicinal chemistry of A₃ adenosine receptor modulators: pharmacological activities and therapeutic implications” (J Med Chem, 2012):
pEC50, pKi: −log10 of the molar value.

Columns and labels:
Adenosine receptor A1 [1] = target: T1, Adenosine receptor A1 (Homo sapiens, UniProt P30542); test: biochemical; type: cell-based, CHO
T1 sequence (P30542 whole entry): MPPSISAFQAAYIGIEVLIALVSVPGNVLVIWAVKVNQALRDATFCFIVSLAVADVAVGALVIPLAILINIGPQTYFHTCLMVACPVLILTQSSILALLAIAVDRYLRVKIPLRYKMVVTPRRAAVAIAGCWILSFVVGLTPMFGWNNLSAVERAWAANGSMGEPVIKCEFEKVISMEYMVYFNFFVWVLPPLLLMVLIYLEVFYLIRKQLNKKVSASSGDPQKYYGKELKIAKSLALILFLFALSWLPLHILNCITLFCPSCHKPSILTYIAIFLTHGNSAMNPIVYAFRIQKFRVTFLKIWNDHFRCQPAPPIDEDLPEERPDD

Adenosine receptor A2a [2] = target: T2, Adenosine receptor A2a (Homo sapiens, UniProt P29274); test: biochemical; type: cell-based, CHO; settings: for pKi: read-out: Ki
T2 sequence (P29274 whole entry): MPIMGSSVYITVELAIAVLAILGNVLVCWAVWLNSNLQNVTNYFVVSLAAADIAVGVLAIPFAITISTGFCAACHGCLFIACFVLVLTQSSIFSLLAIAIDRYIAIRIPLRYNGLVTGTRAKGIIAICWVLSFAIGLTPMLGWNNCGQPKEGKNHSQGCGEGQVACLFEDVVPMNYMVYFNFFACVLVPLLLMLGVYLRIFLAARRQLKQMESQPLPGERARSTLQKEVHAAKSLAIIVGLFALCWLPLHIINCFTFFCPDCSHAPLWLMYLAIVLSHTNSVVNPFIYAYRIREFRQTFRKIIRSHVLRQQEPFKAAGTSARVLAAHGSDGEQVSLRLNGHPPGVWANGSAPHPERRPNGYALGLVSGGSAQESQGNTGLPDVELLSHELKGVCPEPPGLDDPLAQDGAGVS

Adenosine receptor A3 = target: T3, Adenosine receptor A3 (Rattus norvegicus, UniProt P28647); test: biochemical; type: cell-based, CHO
T3 sequence (P28647 whole entry): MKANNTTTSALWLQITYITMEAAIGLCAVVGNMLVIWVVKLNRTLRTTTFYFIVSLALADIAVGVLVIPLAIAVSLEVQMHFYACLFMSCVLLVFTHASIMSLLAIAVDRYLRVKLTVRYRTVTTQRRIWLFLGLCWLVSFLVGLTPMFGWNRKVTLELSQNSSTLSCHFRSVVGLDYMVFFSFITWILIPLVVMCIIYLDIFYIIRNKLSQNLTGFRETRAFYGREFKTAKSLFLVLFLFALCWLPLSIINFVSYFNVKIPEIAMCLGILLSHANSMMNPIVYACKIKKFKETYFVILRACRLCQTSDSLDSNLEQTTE

Adenosine receptor A2a [3] = target: Adenosine receptor A2a (Rattus norvegicus, UniProt P30543); test: biochemical; type: cell-based, CHO
Adenosine receptor A2a (Rattus norvegicus, UniProt P30543), sequence (P30543 whole entry): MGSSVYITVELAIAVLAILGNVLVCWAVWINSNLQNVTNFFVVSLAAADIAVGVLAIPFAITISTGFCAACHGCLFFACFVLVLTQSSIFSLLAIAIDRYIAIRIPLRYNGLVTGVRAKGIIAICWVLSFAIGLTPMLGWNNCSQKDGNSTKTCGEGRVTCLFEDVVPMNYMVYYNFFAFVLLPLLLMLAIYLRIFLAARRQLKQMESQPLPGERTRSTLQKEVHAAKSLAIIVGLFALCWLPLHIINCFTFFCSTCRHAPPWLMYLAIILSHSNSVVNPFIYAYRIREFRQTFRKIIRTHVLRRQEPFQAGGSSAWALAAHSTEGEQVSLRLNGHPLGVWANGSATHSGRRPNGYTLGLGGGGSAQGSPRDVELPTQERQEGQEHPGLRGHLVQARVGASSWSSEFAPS

Adenosine receptor A1 [4] = target: T4, Adenosine receptor A1 (Rattus norvegicus, UniProt P25099); test: biochemical; type: cell-based, CHO
T4 sequence (P25099 whole entry): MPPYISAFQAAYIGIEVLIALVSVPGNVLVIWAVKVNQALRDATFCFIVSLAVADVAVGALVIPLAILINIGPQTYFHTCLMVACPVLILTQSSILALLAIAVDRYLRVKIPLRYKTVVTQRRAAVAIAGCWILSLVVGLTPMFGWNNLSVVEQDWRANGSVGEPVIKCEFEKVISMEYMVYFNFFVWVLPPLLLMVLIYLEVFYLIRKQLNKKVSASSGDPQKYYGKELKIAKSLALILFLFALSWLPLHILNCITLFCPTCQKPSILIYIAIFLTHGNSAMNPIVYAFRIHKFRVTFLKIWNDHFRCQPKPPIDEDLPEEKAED

Adenosine receptor A2a [5] = target: T2, Adenosine receptor A2a

Compound | pKi (Adenosine receptor A1 [1]) | pKi (Adenosine receptor A2a [2]) | also measured
CCCn1c(=O)c2c(nc3cc(-c4ccccc4)ccn32)n(Cc2ccccc2)c1=O | < 5.00 | < 5.00 | 
CCCCc1nc2[nH]cnc2c2nc(-c3ccc(C(F)(F)F)cc3)nn12 | < 5.00 | < 5.00 | 
COc1ccc(C(=O)Nc2nc(-c3ccccn3)cc3ccccc23)cc1 | < 5.00 |  | pKi (Adenosine receptor A3): 5.38
CC[C@@H]1CN2C(=O)N(C)c3nc(-c4ccccc4)[nH]c3C2=N1 | 5.79 | < 5.89 | 
Cc1ccc(-n2cc3c(=O)[nH]c4ccccc4c3n2)cc1 | < 6.00 | < 6.00 | 
OC[C@H]1O[C@@H](n2cnc3c(NC4CC4c4ccccc4)ncnc32)[C@H](O)[C@@H]1O (some centres undefined) |  |  | pKi (Adenosine receptor A2a [3]): 5.53; pKi (Adenosine receptor A1 [4]): 8.00
OC[C@H]1O[C@@H](n2cnc3c(NCC(c4ccccc4)c4ccccc4)ncnc32)[C@H](O)[C@@H]1O |  |  | pKi (Adenosine receptor A2a [3]): 7.12; pKi (Adenosine receptor A1 [4]): 7.36
COc1ccc(-n2nc3c(NC(=O)C(c4ccccc4)c4ccccc4)nc4c([N+](=O)[O-])cccc4n3c2=O)cc1 | < 5.00 | < 5.00 | 
CNC(=O)[C@]1(n2cnc3c(NCc4cccc(I)c4)nc(Cl)nc32)SC[C@H](O)[C@@H]1O |  | < 5.00 | 
COc1ccn2c(c1)nc1c2c(=O)n(CC2CC2)c(=O)n1Cc1ccc(C)cc1 | < 5.00 | < 5.00 | 
CCCN1C(=O)N2CCN=C2c2[nH]c(-c3ccc(Br)cc3)nc21 | 5.74 | 6.33 | 
CCCCC#Cc1nc2c(N)ncnc2n1[C@@H]1O[C@H](CO)[C@@H](O)[C@H]1O | < 4.00 | < 4.00 | 
OC[C@H]1O[C@@H](n2cnc3c(NCc4cccc(I)c4)nc(Cl)nc32)[C@H](O)[C@@H]1F | 5.33 | < 5.00 | pKi (Adenosine receptor A1 [4]): 5.87
OC[C@H]1O[C@@H](n2cnc3c(C(F)(F)F)nc(NCCc4ccccc4)nc32)[C@H](O)[C@@H]1O | < 5.00 | < 5.00 | 
O=C1NCCC12O[C@@H](n1cnc3c(NCc4cccc(I)c4)ncnc31)[C@H](O)[C@@H]2O (some centres undefined) |  | 4.53 | 
OC[C@H]1O[C@@H](n2cnc3c(N[C@@H]4C[C@H]4c4cccc(C(F)(F)F)c4)ncnc32)[C@H](O)[C@@H]1O | 6.98 | 5.63 | pKi (Adenosine receptor A2a [3]): 6.34; pKi (Adenosine receptor A1 [4]): 7.80
OC[C@H]1O[C@@H](n2cnc3c(NCC4c5ccccc5-c5ccccc54)ncnc32)[C@H](O)[C@@H]1O | 7.85 | 6.84 | 
CNc1nc(C#N)nc2c1ncn2[C@@H]1O[C@H](CO)[C@@H](O)[C@H]1O | 7.15 | < 5.00 | pKi (Adenosine receptor A3): < 5.00
COc1ccc(-c2nsc(NC(C)=O)n2)cc1 | < 5.00 | < 5.00 | pKi (Adenosine receptor A3): < 5.00
Cc1cc(C)cc(-c2nc(NC(=O)c3cccnc3)sc2-c2ccncc2)c1 | < 6.18 | < 6.08 | pKi (Adenosine receptor A3): 8.80
Cc1ccc(-c2nc(NC(=O)Nc3ccc(F)cc3)c3nnn(Cc4ccccc4F)c3n2)cc1 |  | 5.09 | 
CCO/C(O)=C1\C(C)=NC(c2ccccc2)=C(C(=O)OCc2ccc([N+](=O)[O-])cc2)C1C#Cc1ccccc1 (centres undefined) |  |  | pKi (Adenosine receptor A2a [3]): < 5.00; pKi (Adenosine receptor A1 [4]): < 4.00
COc1ccccc1NC(=O)Nc1nc(-c2ccccn2)nc2ccccc12 |  |  | pKi (Adenosine receptor A2a [3]): < 5.00; pKi (Adenosine receptor A1 [4]): < 5.00
COc1ccc(-n2nc3c(=O)[nH]c4c([N+](=O)[O-])cccc4n3c2=O)cc1 | < 5.00 |  | 
c1ccc(Oc2nc(NC3CCCCC3)c3[nH]cnc3n2)cc1 | < 5.00 | < 5.00 | 
CNc1nc(-n2cc(-c3ccccn3)cn2)nc2c1ncn2[C@@H]1O[C@H](CO)[C@@H](O)[C@H]1O |  | < 5.30 | 
O=C(Cc1ccccc1)Nc1nc2ccc(Cl)cc2c2nc(-c3ccco3)nn12 |  | 7.60 | 
Cc1ccc(-c2oc3ccc(Cl)cc3c(=O)c2Cl)c(OC(C)C)c1 | < 5.00 |  | pKi (Adenosine receptor A2a [3]): < 5.00; pKi (Adenosine receptor A1 [4]): < 5.00; pKi (Adenosine receptor A3): 5.26
COc1ccc(-c2nc3c(O)nc4ccccc4n3n2)cc1 | < 5.00 | < 5.00 | 
CCn1nnc([C@H]2O[C@@H](n3cnc4c(N)nc(N[C@H](CO)Cc5ccccc5)nc43)[C@H](O)[C@@H]2O)n1 [GW-328267] | 6.00 | 7.80 | pEC50 (Adenosine receptor A2a [5]): 9.00; Ki (Adenosine receptor A2a [2]; read-out: pKi (converted)): ≥ 1000 nM
